melting point [°C]	SMILES
180 to 181	CONC(=NS(=O)(=O)c1ccc(Cl)cc1)N1CC(c2ccccc2)C(c2ccc(Cl)s2)=N1 (stereo not drawn) [Example 47, 3-(5-Chlorothien-2-yl)-N′-((4-chlorophenyl)sulfonyl)-N-methoxy-4-phenyl-4,5-dihydro-1H-pyrazole-1-carboxamidine]
> 260	CONC(=NS(=O)(=O)c1ccc(C(F)(F)F)cc1)N1CC(c2cccc(F)c2)C(c2ccc(Cl)cc2)=N1 (stereo not drawn)
147 to 149	CONC(=NS(=O)(=O)c1ccc(C(F)(F)F)cc1)N1CC(c2ccccc2F)C(c2ccc(Cl)cc2)=N1 (stereo not drawn)
80 to 83	CONC(=NS(=O)(=O)c1ccc(Cl)cc1)N1CC(c2cccc(C(F)(F)F)c2)C(c2ccc(Cl)cc2)=N1 (stereo not drawn) [Example 49, 3-(4-Chlorophenyl)-N′-((4-chlorophenyl)sulfonyl)-N-methoxy-4-(3-(trifluoromethyl)phenyl)-4,5-dihydro-1H-pyrazole-1-carboxamidine]
145 to 146	CONC(=NS(=O)(=O)c1ccccc1C)N1CC(c2ccccc2)C(c2ccc(Cl)cc2)=N1 (stereo not drawn)
151 to 152	CONC(=NS(=O)(=O)c1cccc(C)c1)N1CC(c2ccccc2)C(c2ccc(Cl)cc2)=N1 (stereo not drawn)
160 to 162	CONC(=NS(=O)(=O)c1cc(F)c(F)cc1F)N1CC(c2ccccc2)C(c2ccc(Cl)cc2)=N1 (stereo not drawn)
162 to 164	CONC(=NS(=O)(=O)c1ccc(Cl)cc1)N1CC(c2ccccc2F)C(c2ccc(Cl)cc2)=N1 (stereo not drawn) [Example 56, 3-(4-Chlorophenyl)-N′-((4-chlorophenyl)sulfonyl)-4-(2-fluorophenyl)-N-(methoxy)-4,5-dihydro-1H-pyrazole-1-carboxamidine]
201 to 203	CONC(=NS(=O)(=O)c1ccc(Cl)cc1)N1CC(c2ccccc2)C(c2ccc(F)cc2)=N1 (stereo not drawn)

More lines, now with the values behind:

SMILES	melting point [°C]
O=S(=O)(N=C(NCCF)N1CC(c2c(F)cccc2F)C(c2ccc(Cl)cc2)=N1)c1ccc(Cl)cc1 (stereo not drawn) [Example 51, 3-(4-Chlorophenyl)-N′-((4-chlorophenyl)sulfonyl)-N-(2-fluoroethyl)-4-(2,6-difluorophenyl)-4,5-dihydro-1H-pyrazole-1-carboxamidine]	153 to 155
CONC(=NS(=O)(=O)c1ccc(Cl)cc1)N1CC(c2c(F)cccc2F)C(c2ccc(Cl)cc2)=N1 (stereo not drawn)	174 to 177
O=S(=O)(N=C(NCCF)N1CC(c2cccc(F)c2)C(c2ccc(Cl)cc2)=N1)c1ccc(C(F)(F)F)cc1 (stereo not drawn) [Example 53, 3-(4-Chlorophenyl)-N-(2-fluoroethyl)-4-(3-fluorophenyl)-N′-((4-(trifluoromethyl)phenyl)sulfonyl)-4,5-dihydro-1H-pyrazole-1-carboxamidine]	155
O=S(=O)(N=C(NN1CCCCC1)N1CC(c2ccccc2)C(c2ccc(Cl)cc2)=N1)c1ccc(Cl)cc1 (stereo not drawn) [Example 1, 3-(4-Chlorophenyl)-N′-((4-chlorophenyl)sulfonyl)-N-(piperidin-1-yl)-4-phenyl-4,5-dihydro-1H-pyrazole-1-carboxamidine]	213 to 214
O=S(=O)(N=C(NCCF)N1CC(c2cccc(F)c2)C(c2ccc(Cl)cc2)=N1)c1ccc(Cl)cc1 (stereo not drawn)	130
CN1CCN(C(=NS(=O)(=O)c2ccc(Cl)cc2)N2CC(c3cccc(C(F)(F)F)c3)C(c3ccc(Cl)cc3)=N2)CC1 (stereo not drawn) [Example 86, N-[(3-(4-chlorophenyl)-4-(3-(trifluoromethyl)phenyl)-4,5-dihydro-1H-pyrazol-1-yl)(4-methylpiperazin-1-yl)methylene]-4-chlorobenzenesulfonamide]	97 to 100
